From patent US7714018B2, “Heterocyclic antiviral compounds” (Roche Palo Alto LLC, priority 2004, dated 2010)
Structures can show the parent of a compound that is named as a salt.

Key:
Human CCR5 receptor = biological target: T1, Human CCR5 receptor (Homo sapiens, UniProt P51681); assay: Human CCR5 receptor-ligand binding assay (125I RANTES displacement); settings: 0.1 nM 125I RANTES, CHO-Gα16-hCCR5 cells, RT 2 h
T1 construct: expressed in transfected cells
Source text: Human CCR5 receptor (Genebank ID: 29169292) was cloned into mammalian expression vector, pTarget (Promega). The construct was transfected into CHO-Gα16 cells by using Fugene Reagent (Roche). Clones were selected under antibiotic pressure (G418 and Hygromycin) and sorted 4 times with a fluorescence activates cell sorter and a monoclonal antibody specific for CCR5 receptor (BD Biosciences Pharmigen, Mab 2D7, Cat. No. 555993). The clone with highest expression (100,000 copies per cell) was chosen for the binding assays.
Adherent cells in […] tissue culture flask (˜90% confluent) were harvested using 1 mM EDTA in PBS (phosphate-buffered saline) without Ca^2+ and Mg^2+. Cells were washed twice with PBS containing no Ca^2+ and Mg^2+. CHO-Gα16-hCCR5 cells were then resuspended (1×10^6/ml) in ice cold binding buffer (50 mM HEPES, 1 mM CaCl2, 5 mM MgCl2, 0.5% BSA, 0.05% NaN3, pH 7.24), pH 7.4), supplemented with freshly made 0.5% BSA and 0.05% NaN3.
Eighty μl CHO-Gα16-hCCR5 (1×10^6/ml) cells were added to 96 well plates. All dilutions were made in binding buffer (50 mM HEPES, 1 mM CaCl2, 5 mM MgCl2, 0.5% BSA, 0.05% NaN3, pH 7.24).
The plates were incubated on a cell shaker at RT for 2 h with a final concentration of 0.1 nM ^125I RANTES or ^125I MIP-1α or ^125I MIP-1β. The compound dilutions were made in PBS, 1% BSA. Total reaction volume was 100 μl per well. The test compounds were added to the cells prior to the addition of radioligand.
After incubation, the cells were harvested onto GF/C filter plates using Packard cell harvester. Filters were pretreated with 0.3% PEI/0.2% BSA for 30 min. The filter plate was washed rapidly 5 times with 25 mM HEPES, 500 mM NaCl, 1 mM CaCl2 and 5 mM MgCl2 adjusted to pH 7.1. Plates were dried in oven (70° C.) for 20 min, added with 40 μl scintillation fluid and sealed with Packard TopSeal-A. Packard Top Count was used to measure of the radioactivity for 1 min per well.
Total binding was determined with control wells added with radioisotope and buffer and the non-specific binding was determined using an excess cold RANTES to some of the control wells. Specific binding was determined by subtracting the non-specific form total binding. Results are expressed as the percentage of specific ^125I RANTES binding. IC50 values were determined using varying concentrations of the test ligand in triplicates and the data was analyzed using GraphPad Prism (GraphPad, San Diego, Calif.).

T1 sequence (P51681 whole entry): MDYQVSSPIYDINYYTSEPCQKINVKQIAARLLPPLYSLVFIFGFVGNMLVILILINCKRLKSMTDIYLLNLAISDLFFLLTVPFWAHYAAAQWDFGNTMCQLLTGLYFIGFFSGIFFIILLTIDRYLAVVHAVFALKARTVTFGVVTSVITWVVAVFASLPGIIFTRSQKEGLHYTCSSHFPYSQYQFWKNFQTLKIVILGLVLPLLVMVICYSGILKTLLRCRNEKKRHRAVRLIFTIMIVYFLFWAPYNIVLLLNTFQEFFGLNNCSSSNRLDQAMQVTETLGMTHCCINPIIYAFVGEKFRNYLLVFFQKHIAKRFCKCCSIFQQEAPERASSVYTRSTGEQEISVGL

| Structure (SMILES) | IC50 (Human CCR5 receptor) | melting point |
| --- | --- | --- |
| Cc1ccc(N(CCCN2CC3CN(C(=O)c4c(C)ncnc4C)CC3C2)C(=O)C2CCN(C(=O)C(=O)O)CC2)cc1Cl (stereo not drawn) [II-303, [4-((3-Chloro-4-methyl-phenyl)-{3-[5-(4,6-dimethyl-pyrimidine-5-carbonyl)-hexahydro-pyrrolo[3,4-c]pyrrol-2-yl]-propyl}-carbamoyl)-piperidin-1-yl]-oxo-acetic acid, hydrochloride salt] | 0.102 µM |  |
| Cc1ncnc(C)c1C(=O)N1CC2CN(CCC(NC(=O)C3CCCC3)c3ccccc3)CC2C1 (stereo not drawn) [Compound I-29, Cyclopentanecarboxylic acid {3-[5-(4,6-dimethyl-pyrimidine-5-carbonyl)-hexahydro-pyrrolo[3,4-c]pyrrol-2-yl]-1-phenyl-propyl}-amide] | 0.016 µM | 48 to 49 °C |
| CC(=O)N1CCC(C(=O)N(CCC(C)N2CC3CN(C(=O)c4c(C)ccnc4C)CC3C2)c2ccc(C)c(Cl)c2)CC1 (stereo not drawn) [II-36, 1-Acetyl-piperidine-4-carboxylic acid (3-chloro-4-methyl-phenyl)-{3-[5-(2,4-dimethyl-pyridine-3-carbonyl)-hexahydro-pyrrolo[3,4-c]pyrrol-2-yl]-butyl}-amide] |  | 60.9 to 62.4 °C |
| Cc1ncnc(C)c1C(=O)N1CC2CN(C(C)CC(NC(=O)C3CCC(F)(F)CC3)c3ccccc3)CC2C1 (stereo not drawn) [Compound I-448, 4,4-Difluoro-cyclohexanecarboxylic acid {3-[5-(4,6-dimethyl-pyrimidine-5-carbonyl)-hexahydro-pyrrolo[3,4-c]pyrrol-2-yl]-1-phenyl-butyl}-amide] |  | 71.3 to 72.9 °C |
| Cc1ccc(N(CCCN2CC3CN(C(=O)c4c(C)cccc4C)CC3C2)C(=O)C2CCS(=O)(=O)CC2)cc1Cl (stereo not drawn) [II-279] | 0.0015 µM | 101.3 to 102.7 °C |
| CCOC(=O)c1[nH]c(C)c(S(=O)(=O)N2CC3CN(CCCN(C(=O)C4CCN(C(C)=O)CC4)c4ccc(C)c(Cl)c4)CC3C2)c1C (stereo not drawn) [II-355] | 0.0027 µM |  |
| Cc1ncnc(C)c1C(=O)N1CC2CN(CCC(NC(=O)C3CCC(F)(F)CC3)c3ccccc3)CC2C1 (stereo not drawn) [Compound I-435, 4,4-Difluoro-cyclohexanecarboxylic acid {3-[5-(4,6-dimethyl-pyrimidine-5-carbonyl)-hexahydro-pyrrolo[3,4-c]pyrrol-2-yl]-1-phenyl-propyl}-amide] |  | 131.8 to 133.2 °C |
| Cc1ncnc(C)c1C(=O)N1CC2CN(C(C)C[C@H](NC(=O)C3CCC(F)(F)CC3)c3ccccc3)CC2C1 (stereo partly drawn) [Compound I-449] | 0.001 µM | 86.4 to 87 °C |
| Cc1ccnc(C)c1C(=O)N1CC2CN(CC[C@H](NC(=O)C3CCCC3)c3ccccc3)CC2C1 (stereo partly drawn) [Compound I-78] | 0.037 µM | 68.8 to 73.6 °C |
| Cc1cccc(C)c1C(=O)N1CC2CN(C(CO)CC(NC(=O)C3CCCC3)c3ccccc3)CC2C1 (stereo not drawn) [Compound I-360, Cyclopentanecarboxylic acid {3-[5-(2,6-dimethyl-benzoyl)-hexahydro-pyrrolo[3,4-c]pyrrol-2-yl]-4-hydroxy-1-phenyl-butyl}-amide] |  | 78.9 to 84.9 °C |
| Cc1cccc(C)c1C(=O)N1C[C@H]2CN(CCC(NC(=O)C3CCCC3)c3ccccc3)C[C@H]2C1 (stereo partly drawn) [Compound I-3, Cyclopentanecarboxylic acid {3-[5-(2,6-dimethyl-benzoyl)-hexahydro-pyrrolo[3,4-c]pyrrol-2-yl]-1-phenyl-propyl}-amide] |  | 60.9 to 63.9 °C |
| Cc1ccc(N(CCCN2C[C@@H]3CN(C(=O)c4c(C)ccnc4C)C[C@@H]3C2)C(=O)Nc2ccc(Cl)cc2)cc1 [II-203, 3-(4-Chloro-phenyl)-1-{3-[(3aS,6aR)-5-(2,4-dimethyl-pyridine-3-carbonyl)-hexahydro-pyrrolo[3,4-c]pyrrol-2-yl]-propyl}-1-p-tolyl-urea] |  | 60.5 to 62.5 °C |
| CC(=O)N1CCC(C(=O)N(CCCN2CC3CN(C(=O)c4c(C)ccnc4C)CC3C2)c2ccc(C)c(Cl)c2)CC1 (stereo not drawn) [II-3, 1-Acetyl-piperidine-4-carboxylic acid (3-chloro-4-methyl-phenyl)-{3-[5-(2,4-dimethyl-pyridine-3-carbonyl)-hexahydro-pyrrolo[3,4-c]pyrrol-2-yl]-propyl}-amide] | 0.0184 µM | 91.8 to 96.9 °C |
| CC(=O)N1CCC(C(=O)N(CCCN2C[C@@H]3CN(C(=O)c4c(C)cccc4C)C[C@@H]3C2)c2ccc(C)c(Cl)c2)CC1 [II-1, 1-Acetyl-piperidine-4-carboxylic acid (3-chloro-4-methyl-phenyl)-{3-[5-(2,6-dimethyl-benzoyl)-hexahydro-pyrrolo[3,4-c]pyrrol-2-yl]-propyl}] | 0.0042 µM | 58.1 to 65.2 °C |
| Cc1nc(OCC(=O)O)nc(C)c1C(=O)N1CC2CN(CC[C@H](NC(=O)C3CCCC3)c3ccccc3)CC2C1 (stereo partly drawn) [Compound I-466] | 0.011 µM |  |
